Km, Vmax and IC50 data for 2 compounds are collected here from patent US20030180827A1, “Highly sensitive and continuous protein tyrosine phosphatase test using 6,8-difluoro-4-methylumbelliferyl phosphate” (Aventis Pharma Deutschland Gmbh., priority 2002, published 2003).

The structures appear in SMILES notation.

What all share (type): biochemical
Assay [1] concerns the target T1, protein tyrosine phosphatase PTP1B (Homo sapiens, UniProt P18031).
T1 sequence (P18031 1-435): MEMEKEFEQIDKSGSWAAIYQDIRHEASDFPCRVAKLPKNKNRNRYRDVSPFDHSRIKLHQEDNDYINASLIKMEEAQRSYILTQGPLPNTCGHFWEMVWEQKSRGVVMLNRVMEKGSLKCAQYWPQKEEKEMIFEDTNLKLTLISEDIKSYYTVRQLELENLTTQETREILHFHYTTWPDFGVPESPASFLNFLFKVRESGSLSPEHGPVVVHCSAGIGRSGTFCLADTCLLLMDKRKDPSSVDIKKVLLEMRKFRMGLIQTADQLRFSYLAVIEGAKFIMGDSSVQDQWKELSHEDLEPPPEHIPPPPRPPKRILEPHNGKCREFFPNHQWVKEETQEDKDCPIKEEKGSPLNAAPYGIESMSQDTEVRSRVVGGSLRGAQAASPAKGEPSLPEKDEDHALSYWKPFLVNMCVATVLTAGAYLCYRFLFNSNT
The assay is described as follows: Concentration dependence of the cleavage of DiFMUP by PTP1B (Lineweaver-Burk analysis). To be noted: DiFMUP as substrate 0-200 μM, 100 ng PTP1b/ml, pH 6.9, 37° C. The protocol: The reaction takes place in a black microtiter plate at a temperature of 37° C. 135 μl of reaction buffer are provided in each case, with this buffer containing the following components: 100 ng of protein tyrosine phosphatase PTP1b/ml; 50 mM Hepes, pH 6.9; 150 mM NaCl; 1 mM EDTA; 2 mM DTT. The phosphatase reaction is started by adding 15 μl of DiFMUP solution, which contains the substrate at 10 times the final concentration which is desired in the test mixture (FIG. 2: 0-200 μM), and the fluorescence is measured, at time intervals of 30 seconds for a period of 15 minutes, in a fluorescence microtiter plate photometer at 358/455 nm. The measure of the enzyme activity is the increase in fluorescence (measured in RFU) in dependence on the DiFMUP concentration, which can be depicted graphically (FIG. 2). This graph can subsequently be used to determine the kinetic constants of the enzyme reaction by means of a Lineweaver-Burk analysis. […] This analysis can also be carried out in an analogous manner for other tyrosine phosphatases.

The target in assay [2] is T1, protein tyrosine phosphatase PTP1B. The assay is described as follows: DiFMUP test, inhibition of PTP1B. Conditions: DiFMUP substrate, 100 ng PTP1B/ml, pH 6.9, 37° C.; read-out: inhibitor concentration that reduces the activity of the PTP1B by half (IC-50). The protocol: (§1) The test for determining the inhibitory effect of the active compound 2,2-dioxo-2,3dihydro-2,6-benzo[1,2,3]oxathiazol-5-yl)-(9-ethyl-9H-carbazol-3-ylmethyl)amine using the DiFMUP test takes place in a black microtiter plate at a temperature of 37° C. 120 μl volumes of reaction buffer are provided, with the buffer containing the following components: 100 ng of protein tyrosine phosphatase PTP1B/ml; 50 mM Hepes, pH 6.9; 150 mM NaCl; 1 mM EDTA; 2 mM DTT. To this are added 15 μl of the inhibitor solution to be tested, at a variety of concentrations. The phosphatase reaction is started by adding 15 μl of 1 mM DiFMUP solution and the fluorescence (measured in RFU) is measured, at time intervals of 30 seconds and over a period of 15 minutes, in a fluorescence microtiter plate photometer at 358/455 nm. The measure of the enzyme activity is the increase in fluorescence, which can be depicted graphically (FIG. 1). The reduction in enzymic activity which is obtained depends on the concentration of inhibitor employed. The inhibitor concentration at which the active compound 2,2-dioxo-2,3-dihydro-2,6-benzo[1,2,3]oxathiazol-5-yl)-(9-ethyl-9H-carbazol-3-ylmethyl)amine reduces the activity of the PTP1B by half (IC-50) can be determined to be 3.8 μM. The IC-50 values using the pNPP test method and the malachite green phosphopeptide test were determined for comparison. […]

For assay [3], the target named is T2, PTP1B (Homo sapiens, UniProt P18031).
T2 sequence (P18031 1-435): T1 sequence (P18031 1-435)
The assay is described as follows: pNPP test method. To be noted: for comparison. From the text:
The prior art discloses methods for measuring the activity of a protein tyrosine phosphatase using the substrate p-nitrophenyl phosphate (“p-NPP”). These methods are to be found in standard biochemical manuals such as Current Protocols in Protein Science: John E. Coligan (ed.), Ben M. Dunn (ed.), Hidde L. Ploegh (ed.), David W. Speicher (ed.), Paul T. Wingfield (ed.); SBN: 0-471-11184-8; loose-leaf pages, continuously updated; published by John Wiley & Sons. In these methods, the action of a phosphatase forms p-nitrophenol from the p-NPP. The p-nitrophenol thus produced can be measured photometrically on the basis of its intense yellow color in the alkaline range.
However, this test method has some unfavorable features. […] The increase in the pH leads to the color of the resulting p-nitrophenol changing to yellow, the absorption of which is determined photometrically and is a measure of the quantity of p-nitrophenol which is present. […]
The test for determining the inhibitory effect of the active compound 2,2-dioxo-2,3dihydro-2,6-benzo[1,2,3]oxathiazol-5-yl)-(9-ethyl-9H-carbazol-3-ylmethyl)amine using the DiFMUP test takes place in a black microtiter plate at a temperature of 37° C. […] The measure of the enzyme activity is the increase in fluorescence, which can be depicted graphically (FIG. 1). […]

Assay [4] deals with T2, PTP1B. The assay is described as follows: malachite green phosphopeptide test. Conditions: malachite green phosphopeptide test method, for comparison.
From the text: The malachite green phosphopeptide test has been described as another method for measuring the activity of protein tyrosine phosphatases. Martin et al. (1985) Journal of Biological Chemistry, 260, pp. 14932 and Harder et al. (1994) Biochemical Journal, 298, pp. 395. In this method, the inorganic phosphate which the phosphatase has released from its substrate peptide is detected photometrically using the malachite green reagent. […]
as §1, with “120 μl volumes of reaction buffer are provided, with the buffer containing the following components: 100 ng of protein tyrosine phosphatase PTP1B/ml; 50 mM Hepes, pH 6.9; 150 mM NaCl; 1 mM EDTA; 2 mM DTT. To this are added 15 μl of the inhibitor solution to be tested, at a variety of concentrations.” left out, “The reduction in enzymic activity which is obtained depends on the concentration of inhibitor employed.” left out

What is called Km is the substrate concentration at which the rate is half of its maximum. Turning to `Cc1cc(=O)oc2c(F)c(OP(=O)(O)O)c(F)cc12` [DiFMUP, 6,8-difluoro-4-methylumbelliferyl phosphate], in assay [1], the Michaelis-Menten constant (Km) amounted to 19 µM and the Vmax came out at 388000 RFU sec-1 mg-1.

Regarding `CCn1c2ccccc2c2cc(CNc3ccc4c(c3)NS(=O)(=O)O4)ccc21` [2,2-dioxo-2,3-dihydro-2,6-benzo[1,2,3]oxathiazol-5-yl)-(9-ethyl-9H-carbazol-3-ylmethyl)amine], the values for the IC50 (in assay [2]; against PTP1B [3]; on PTP1B [4]) were 3.8 µM, 5.1 µM and 3.9 µM, respectively.
